Among the data in patent US20250368649A1, “TETRAHYDROPYRIDOPYRIMIDINE PAN-KRAS INHIBITORS” (Mirati Therapeutics, Inc., priority 2022, published 2025) are IC50 values, retold here.

Assay [1] deals with KRas G12S (Homo sapiens, UniProt P01116, G12S). It is filed as binding. The conditions noted are these: TR-FRET displacement, read-out: Binding to KRas (IC50 nM) G12S. Background: In TR-FRET formats the signal depends on donor and acceptor labels being close together.
The target of assay [2] is KRas G13D (Homo sapiens, UniProt P01116, G13D). It is filed as binding. The conditions noted are these: TR-FRET displacement, read-out: Binding to KRas (IC50 nM) G13D.
KRas G13D, sequence (P01116 1-169 isoform P01116-2 G13D): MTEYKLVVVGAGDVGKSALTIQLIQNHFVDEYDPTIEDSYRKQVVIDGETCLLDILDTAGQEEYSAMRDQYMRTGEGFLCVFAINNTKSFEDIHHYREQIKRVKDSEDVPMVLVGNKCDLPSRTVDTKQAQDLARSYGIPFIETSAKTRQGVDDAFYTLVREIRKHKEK
Assay [3] has as its target KRas G12C (Homo sapiens, UniProt P01116, G12C). It is filed as binding. The conditions noted are these: TR-FRET displacement, read-out: Binding to KRas (IC50 nM) G12C.
The target in assay [4] is KRas Q61H (Homo sapiens, UniProt P01116, Q61H). Kind of assay: KRas binding assay (TR-FRET displacement), KRas Q61H. The settings on record: TR-FRET displacement.
KRas Q61H, sequence (P01116 1-169 isoform P01116-2 Q61H): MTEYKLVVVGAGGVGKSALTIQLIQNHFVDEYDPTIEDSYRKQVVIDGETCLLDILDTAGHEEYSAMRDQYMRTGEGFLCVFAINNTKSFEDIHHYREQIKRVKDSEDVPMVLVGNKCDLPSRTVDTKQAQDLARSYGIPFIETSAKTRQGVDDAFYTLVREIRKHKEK
In assay [5] the target is KRas WT (Homo sapiens, UniProt P01116). The experiment in a line: KRas binding assay (TR-FRET displacement), KRas WT. The conditions noted are these: TR-FRET displacement.
KRas WT, sequence (P01116 1-169 isoform P01116-2): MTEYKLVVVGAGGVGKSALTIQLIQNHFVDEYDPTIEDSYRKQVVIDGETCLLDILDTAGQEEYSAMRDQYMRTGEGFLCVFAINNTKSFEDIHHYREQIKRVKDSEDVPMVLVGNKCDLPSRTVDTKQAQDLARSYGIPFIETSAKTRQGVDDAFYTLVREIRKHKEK
Assay [6] deals with KRas G12D (Homo sapiens, UniProt P01116, G12D). Kind of assay: biochemical. The settings on record: Binding to KRas (IC50 nM) G12D, TR-FRET displacement, KRas G12D.
KRas G12D, sequence (P01116 1-169 isoform P01116-2 G12D): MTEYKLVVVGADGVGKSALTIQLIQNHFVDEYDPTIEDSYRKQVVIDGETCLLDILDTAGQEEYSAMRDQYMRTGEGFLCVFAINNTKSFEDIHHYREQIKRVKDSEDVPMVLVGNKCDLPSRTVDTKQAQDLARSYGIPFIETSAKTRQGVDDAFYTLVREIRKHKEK
Assay [7] addresses KRas G12A (Homo sapiens, UniProt P01116, G12A). It is filed as binding. The settings on record: TR-FRET displacement, read-out: Binding to KRas (IC50 nM) G12A.
For assay [8], the target named is KRas G12V (Homo sapiens, UniProt P01116, G12V). Kind of assay: biochemical. The settings on record: Binding to KRas (IC50 nM) G12V, TR-FRET displacement, KRas G12V.
KRas G12V, sequence (P01116 1-169 isoform P01116-2 G12V): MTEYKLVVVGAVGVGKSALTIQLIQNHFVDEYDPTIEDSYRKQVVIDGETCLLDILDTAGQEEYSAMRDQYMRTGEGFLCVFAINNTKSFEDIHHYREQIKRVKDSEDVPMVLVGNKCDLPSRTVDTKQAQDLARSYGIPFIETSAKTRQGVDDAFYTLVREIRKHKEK

KRas G12A, sequence (P01116 1-169 isoform P01116-2 G12A): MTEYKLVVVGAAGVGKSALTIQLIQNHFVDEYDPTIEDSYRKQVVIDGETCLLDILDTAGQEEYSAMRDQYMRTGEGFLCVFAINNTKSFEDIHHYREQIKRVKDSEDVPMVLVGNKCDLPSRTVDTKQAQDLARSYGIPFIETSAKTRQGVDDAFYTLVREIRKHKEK
KRas G12C, sequence (P01116 1-169 isoform P01116-2 G12C): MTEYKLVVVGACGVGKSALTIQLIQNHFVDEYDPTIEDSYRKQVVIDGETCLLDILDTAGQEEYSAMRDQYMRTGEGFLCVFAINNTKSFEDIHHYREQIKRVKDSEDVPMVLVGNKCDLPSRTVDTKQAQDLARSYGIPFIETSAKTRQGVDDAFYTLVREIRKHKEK
KRas G12S, sequence (P01116 1-169 isoform P01116-2 G12S): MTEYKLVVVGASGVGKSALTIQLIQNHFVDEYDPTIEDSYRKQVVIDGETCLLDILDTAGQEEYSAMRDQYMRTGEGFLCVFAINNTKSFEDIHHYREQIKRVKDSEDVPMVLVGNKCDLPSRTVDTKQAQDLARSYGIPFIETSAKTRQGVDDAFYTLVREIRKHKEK

As a reminder, the IC50 is the point on the concentration scale where inhibition reaches its midpoint. `CCc1cccc2cccc(N3CCc4c(nc(OCC5(CN(C)C)CC5)nc4N(C)Cc4nnnn4C)C3)c12` [Example 537, 2-((1-((dimethylamino)methyl)cyclopropyl)methoxy)-7-(8-ethylnaphthalen-1-yl)-N-methyl-N-((1-methyl-1H-tetrazol-5-yl)methyl)-5,6,7,8-tetrahydropyrido[3,4-d]pyrimidin-4-amine]: the IC50 in assay [1] is 5660 nM; in assay [2] it was above 100000 nM; in assay [3] it was 3700 nM; in assay [4] it was above 100000 nM; in assay [5], 26700 nM; in assay [6], 8520 nM. In addition, the 50% inhibitory concentration (IC50) in assay [7] is 43500 nM; in assay [8] it was 3180 nM.

As for `CCc1cccc2cccc(N3CCc4c(nc(OCC5(CN(C)C)CC5)nc4N(C)Cc4nnc5n4CCOC5)C3)c12` [Example 538, N-((5,6-dihydro-8H-[1,2,4]triazolo[3,4-c][1,4]oxazin-3-yl)methyl)-2-((1-((dimethylamino)methyl)cyclopropyl)methoxy)-7-(8-ethylnaphthalen-1-yl)-N-methyl-5,6,7,8-tetrahydropyrido[3,4-d]pyrimidin-4-amine], the IC50 stood at 2780 nM in assay [1]; 4360 nM in assay [2]; 1330 nM in assay [3]; 4350 nM in assay [4]; 3000 nM in assay [5]; 9040 nM in assay [6]. Further, the values for the IC50 in assay [7] and in assay [8] were 2530 nM and 1860 nM, respectively.

Turning to `CCc1cccc2cccc(N3CCc4c(nc(OCC5(CN(C)C)CC5)nc4NCc4cc(CO)[nH]n4)C3)c12` [Example 539, (3-(((2-((1-((dimethylamino)methyl)cyclopropyl)methoxy)-7-(8-ethylnaphthalen-1-yl)-5,6,7,8-tetrahydropyrido[3,4-d]pyrimidin-4-yl)amino)methyl)-1H-pyrazol-5-yl)methanol], the IC50 in assay [1] was 20700 nM; in assay [2], 42200 nM; in assay [3], 8970 nM; in assay [4], 41300 nM; in assay [5], 19900 nM; in assay [6], 9320 nM. The values for the IC50 in assay [7] and in assay [8] were 17100 nM and 5880 nM, respectively.

For the molecule `CCc1cccc2cccc(N3CCc4c(nc(OCC5(CN(C)C)CC5)nc4N4CC(CO)OC(C(F)(F)F)C4)C3)c12` (centres unmarked) [Example 540, (4-(2-((1-((dimethylamino)methyl)cyclopropyl)methoxy)-7-(8-ethylnaphthalen-1-yl)-5,6,7,8-tetrahydropyrido[3,4-d]pyrimidin-4-yl)-6-(trifluoromethyl)morpholin-2-yl)methanol], the IC50 stood at 3750 nM in assay [1]; 8850 nM in assay [2]; 1840 nM in assay [3]; 7730 nM in assay [4]; 5810 nM in assay [5]; 9350 nM in assay [6]. Moreover, the IC50 in assay [7] stood at 3280 nM; in assay [8], 1720 nM.

For `CCc1cccc2cccc(N3CCc4c(nc(OCC5(CN(C)C)CC5)nc4NCc4ccnn4C4CC4(F)F)C3)c12` (centres unmarked) [Example 541, N-((1-(2,2-difluorocyclopropyl)-1H-pyrazol-5-yl)methyl)-2-((1-((dimethylamino)methyl)cyclopropyl)methoxy)-7-(8-ethylnaphthalen-1-yl)-5,6,7,8-tetrahydropyrido[3,4-d]pyrimidin-4-amine], the IC50 in assay [1] stood at 169 nM; in assay [2], 200 nM; in assay [3], 165 nM; in assay [4] it was 298 nM; in assay [5] it was 256 nM; in assay [6] it was 10000 nM. Also, the IC50 in assay [7] amounted to 259 nM; in assay [8] it was 5980 nM.

For the molecule `CCc1cccc2cccc(N3CCc4c(nc(OCC5(CN(C)C)CC5)nc4NC4CCCc5[nH]ncc54)C3)c12` (centres unmarked) [Example 542, 2-((1-((dimethylamino)methyl)cyclopropyl)methoxy)-7-(8-ethylnaphthalen-1-yl)-N-(4,5,6,7-tetrahydro-1H-indazol-4-yl)-5,6,7,8-tetrahydropyrido[3,4-d]pyrimidin-4-amine], the half-maximal inhibitory concentration (IC50) in assay [1] was found to be 5830 nM; in assay [2], 15800 nM; in assay [3], 2890 nM; in assay [4] it was 18300 nM; in assay [5] it was 10400 nM; in assay [6], 11600 nM. The results for the IC50 in assay [7] and in assay [8] were 5740 nM and 5370 nM, respectively.

As for `CCc1cccc2cccc(N3CCc4c(nc(OCC5(CN(C)C)CC5)nc4N4CCC(F)C(OC)C4)C3)c12` (centres unmarked) [Example 543, 1-(1-(((7-(8-ethylnaphthalen-1-yl)-4-(4-fluoro-3-methoxypiperidin-1-yl)-5,6,7,8-tetrahydropyrido[3,4-d]pyrimidin-2-yl)oxy)methyl)cyclopropyl)-N,N-dimethylmethanamine], the IC50 amounted to 750 nM in assay [1]; 2270 nM in assay [2]; 634 nM in assay [3]; 2400 nM in assay [4]; 1500 nM in assay [5]; 12100 nM in assay [6]. Besides, the results for the IC50 in assay [7] and in assay [8] were 1200 nM and 3940 nM, respectively.

In the case of `CCc1cccc2cccc(N3CCc4c(nc(OCC5(CN(C)C)CC5)nc4N4CCOC(C(F)F)CC4)C3)c12` (centres unmarked) [Example 544, 1-(1-(((4-(7-(difluoromethyl)-1,4-oxazepan-4-yl)-7-(8-ethylnaphthalen-1-yl)-5,6,7,8-tetrahydropyrido[3,4-d]pyrimidin-2-yl)oxy)methyl)cyclopropyl)-N,N-dimethylmethanamine], the IC50 in assay [1] was found to be 204 nM; in assay [2] it was 112 nM; in assay [3], 180 nM; in assay [4] it was 121 nM; in assay [5] it was 327 nM; in assay [6], 21100 nM. The figures for the IC50 in assay [7] and in assay [8] were 291 nM and 14500 nM, respectively.

Regarding `CCc1cccc2cccc(N3CCc4c(nc(OCC5(CN(C)C)CC5)nc4N4CCCC(c5n[nH]cc5NC(C)=O)C4)C3)c12` (centres unmarked) [Example 545, N-(3-(1-(2-((1-((dimethylamino)methyl)cyclopropyl)methoxy)-7-(8-ethylnaphthalen-1-yl)-5,6,7,8-tetrahydropyrido[3,4-d]pyrimidin-4-yl)piperidin-3-yl)-1H-pyrazol-4-yl)acetamide], the IC50 in assay [1] came to 5000 nM; in assay [2], 8090 nM; in assay [3], 4780 nM; in assay [4], 5900 nM; in assay [5], 7230 nM; in assay [6], 13100 nM. Besides, the IC50 in assay [7] is 4750 nM; in assay [8], 6080 nM.

Consider `CCc1cccc2cccc(N3CCc4c(nc(OCC5(CN(C)C)CC5)nc4N4CCOC(CNC(=O)NC)C4)C3)c12` (centres unmarked) [Example 546, 1-((4-(2-((1-((dimethylamino)methyl)cyclopropyl)methoxy)-7-(8-ethylnaphthalen-1-yl)-5,6,7,8-tetrahydropyrido[3,4-d]pyrimidin-4-yl)morpholin-2-yl)methyl)-3-methylurea], for which the half-inhibitory concentration (IC50) in assay [1] turned out to be 3570 nM; in assay [2] it was 4620 nM; in assay [3], 2630 nM; in assay [4], 3310 nM; in assay [5], 2640 nM; in assay [6], 13600 nM. Further, the IC50 in assay [7] was 3800 nM; in assay [8], 4640 nM.

`CCc1cccc2cccc(N3CCc4c(nc(OCC5(CN(C)C)CC5)nc4NCCC4CC(C)(C)NC4=O)C3)c12` (centres unmarked) [Example 547, 3-(2-((2-((1-((dimethylamino)methyl)cyclopropyl)methoxy)-7-(8-ethylnaphthalen-1-yl)-5,6,7,8-tetrahydropyrido[3,4-d]pyrimidin-4-yl)amino)ethyl)-5,5-dimethylpyrrolidin-2-one]: the IC50 in assay [1] was 707 nM; in assay [2], 680 nM; in assay [3], 622 nM; in assay [4], 784 nM; in assay [5], 667 nM; in assay [6], 15900 nM. In addition, the IC50 in assay [7] turned out to be 798 nM; in assay [8], 2320 nM.

For `CCc1cccc2cccc(N3CCc4c(nc(OCC5(CN(C)C)CC5)nc4N(C)Cc4nnc5n4CC(C(F)(F)F)CC5)C3)c12` (centres unmarked) [Example 548, 2-((1-((dimethylamino)methyl)cyclopropyl)methoxy)-7-(8-ethylnaphthalen-1-yl)-N-methyl-N-((6-(trifluoromethyl)-5,6,7,8-tetrahydro-[1,2,4]triazolo[4,3-a]pyridin-3-yl)methyl)-5,6,7,8-tetrahydropyrido[3,4-d]pyrimidin-4-amine], the IC50 in assay [1] amounted to 8210 nM; in assay [2] it was 13900 nM; in assay [3], 4120 nM; in assay [4], 11100 nM; in assay [5], 10000 nM; in assay [6], 16700 nM. Moreover, the IC50 in assay [7] was 6790 nM; in assay [8] it was 5890 nM.

As for `CCc1cccc2cccc(N3CCc4c(nc(OCC5(CN(C)C)CC5)nc4N(C)Cc4nncn4C(C)C)C3)c12` [Example 549, 2-((1-((dimethylamino)methyl)cyclopropyl)methoxy)-7-(8-ethylnaphthalen-1-yl)-N-((4-isopropyl-4H-1,2,4-triazol-3-yl)methyl)-N-methyl-5,6,7,8-tetrahydropyrido[3,4-d]pyrimidin-4-amine], the IC50 in assay [1] was found to be 1360 nM; in assay [2], 2110 nM; in assay [3], 946 nM; in assay [4], 2540 nM; in assay [5], 1910 nM; in assay [6], 17400 nM. For the same molecule, the half-maximal inhibitory concentration (IC50) was determined as 1670 nM in assay [7] and 1980 nM in assay [8].
